Read-outs that look alike come from different tables or passages of the source.
Assays:
[1] = Plasma and CSF pharmacokinetics from NCT03522129; assay type: in vivo, human; details: single dose of CT1812 (560 mg); for AUC(0-t) / Cmax / Kp: 560 mg; for Kp: CSF/plasma
Aβ 40 and 42 monomers = Aβ 40 and 42 monomers in patient CSF after single dose (NCT03522129); assay type: in vivo, human; details: single dose 560 mg, similar in all three patients including placebo
Experimental: Methods: A Phase 2 clinical trial (NCT03522129) was conducted enrolling patients with mild-to-moderate Alzheimer's disease (MMSE 18-26) into the Randomized, double-blind, placebo-controlled, single dose administration of CT1812 followed by hourly sampling of lumbar CSF via indwelling catheter for 24 hours. The primary objective of the study was to evaluate target engagement of CT1812 treatment by measuring the displacement of Aβ oligomers into cerebrospinal fluid (CSF). The was quantified by a measuring change from the baseline CSF Aβ oligomer concentration after dosing with CT1812 versus placebo. Microimmunoelectrodes (Yuede et al 2016) coated with oligomer-specific antibody, A11 were placed in CSF samples of Alzheimer's disease patient samples to detect soluble Aβ after a single dose of CT1812 (560 mg) or placebo. […] Percent change from baseline in Aβ 40 and 42 monomers were similar in all three patients (<50% increase). […] CSF Aβ oligomer levels were fit to a linear regression and the significance of the slope difference from zero was determined for each patient (FIG. 4 (measured by microimmunoelectrodes); FIG. 5 (measured by Western Blot)).

[2] = system: amyloid β oligomers and monomers; details: animal models and preclinical data; cited from earlier work
amyloid β monomer = details: human subjects treated for 28 days; see 62/976,325; cited from earlier work
Aβ oligomers [3] = assay: Native Western Blot (82E1 antibody) measurement of Aβ oligomers in patient CSF (NCT03522129); assay type: in vivo, human
Patients = assay: ADAS-COG score after 185 days of treatment versus placebo; assay type: in vivo, human; details: day 185, treated at least 6 months (185 days), FIG. 7
Excerpt: Patients treated for at least 6 months (185 days) with CT1812 were compared with patients who received placebo.

Aβ oligomers [4] = assay: Microimmunoelectrode (MIE) measurement of Aβ oligomers in patient CSF after single dose (NCT03522129); assay type: in vivo, human
Experimental: Methods: A Phase 2 clinical trial (NCT03522129) was conducted enrolling patients with mild-to-moderate Alzheimer's disease (MMSE 18-26) into the Randomized, double-blind, placebo-controlled, single dose administration of CT1812 followed by hourly sampling of lumbar CSF via indwelling catheter for 24 hours. The primary objective of the study was to evaluate target engagement of CT1812 treatment by measuring the displacement of Aβ oligomers into cerebrospinal fluid (CSF). The was quantified by a measuring change from the baseline CSF Aβ oligomer concentration after dosing with CT1812 versus placebo. Microimmunoelectrodes (Yuede et al 2016) coated with oligomer-specific antibody, A11 were placed in CSF samples of Alzheimer's disease patient samples to detect soluble Aβ after a single dose of CT1812 (560 mg) or placebo. Results: Microimmunoelectrode (MIE) measurements of Aβ oligomers in CSF show a drug-dependent rise in Aβ oligomers over time.

tmax ([1]; Plasma, Subject 90003): 2.00 h
AUC(0-t) ([1]; human, CSF, Subject 90001): 0.12 µg·h/mL
Cmax ([1]; human, CSF, Subject 90001): 0.0249 µg/mL
AUC(0-t) ([1]; human, CSF, Subject 90003): 0.0464 µg·h/mL
Cmax ([1]; human, CSF, Subject 90003): 0.00727 µg/mL
Kp ([1]; human, Subject 90001, read-out: CSF/Plasma Ratio based on AUC0-last): 0.0381
Kp ([1]; human, Subject 90001, read-out: CSF/Plasma Ratio based on Cmax): 0.0358
Kp ([1]; human, Subject 90003, read-out: CSF/Plasma Ratio based on AUC0-last): 0.0384
Kp ([1]; human, Subject 90003, read-out: CSF/Plasma Ratio based on Cmax): 0.0291
AUC(0-t) ([1]; human, plasma, Subject 90001): 3.16 µg·h/mL
Cmax ([1]; human, plasma, Subject 90001): 0.695 µg/mL
AUC(0-t) ([1]; human, plasma, Subject 90003): 1.21 µg·h/mL
Cmax ([1]; human, plasma, Subject 90003): 0.25 µg/mL
tmax ([1]; human, CSF, Subject 90003, read-out: tmax): 3 h
Compound: CC(C)(C)Oc1cc(CCC(C)(C)N2Cc3ccc(S(C)(=O)=O)cc3C2)ccc1O [CT1812]
Percent change from baseline in Aβ 40 and 42 monomers (increase) (Aβ 40 and 42 monomers): < 50%
amyloid β oligomer concentration in cerebral spinal fluid and brain interstitial fluid [2]: selectively displace oligomers and increase their concentration
concentration of amyloid β monomers [2]: had not effect
amyloid β monomer concentration in the cerebral spinal fluid or interstitial fluid (amyloid β monomer): no change
linear slope of CSF Aβ oligomer level over time (Western Blot) (Aβ oligomers [3]; Patients 1 and 3, p<0.001 for each patient, R^2=0.9808 and 0.3997, placebo slope not different from zero): significantly non-zero
Aβ oligomer levels in CSF over time (Western Blot) (Aβ oligomers [3]; single dose 560 mg, hourly lumbar CSF for 24 hours, not seen in placebo patient): apparent increase with time
difference in Alzheimer's Disease Assessment Score (ADAS-COG) between treated and untreated patients (Patients): three-point difference
linear slope of CSF Aβ oligomer level over time (MIE) (Aβ oligomers [4]; Patients 1 and 3, p<0.001 for each patient, R^2=0.7720 and 0.7898, placebo slope not different from zero): significantly non-zero
Aβ oligomer levels in CSF over time (MIE) (Aβ oligomers [4]; single dose 560 mg, hourly lumbar CSF for 24 hours, mild-to-moderate Alzheimer's disease patients, not seen in placebo patient): apparent increase with time
Aβ oligomer increase, percent change from baseline in CSF (Aβ oligomers [4]; two treated patients, single dose 560 mg, no increase in placebo-treated patient, FIG. 4 (MIE), FIG. 5 (Western Blot)): more than 200%

Source: patent publication US20230098944A1, “METHOD OF DECREASING AMYLOID BETA MONOMER LEVELS IN PATIENTS WITH COGNITIVE DECLINE” (Cognition Therapeutics, Inc., priority 2020, published 2023)
